Data reported in patent EP0354693A1, “Therapeutic agents” (The Boots Company PLC, priority 1988, dated 1990).

Test system: BALB/c mice
Experiment: cutaneous hypersensitivity test (CH test), oxazolone-induced ear swelling
Assay type: in vivo
Settings: Mus musculus, ip; intraperitoneal, at sensitisation and every 24 hours for a further 7 days; lowest dose used giving 20% or greater reduction in ear swelling (p <0.05) in two out of three CH tests; read-out: Minimum Effective Dose
Experimental: This test was carried out in the following way.
Female BALB/c mice, weight range 16-24 g, were used in groups of eight. The abdomen of each mouse was shaved and 20 µl of a solution of a sensitising agent, 5% w/v 4-ethoxymethylene-2-phenyl-2-oxazolin-5-one (oxazolone) in acetone:ethanol (1:1 by volume), was applied to the shaved area. Immediately after sensitisation, the test compound in one of the dosages listed below was injected intraperitoneally as a suspension in 1.5% v/v sorbitan esters, under the trade name Tween 80, in sterile water (100µl). 100 µl of the same suspension was injected likewise every 24 hours for a further 7 days. The dosages used were selected from the following values: 50, 30, 10, 3, 1, 0.3, 0.1, 0.03 or 0.01 mg/kg.
Two groups of eight BALB/c mice were used as a control simultaneously with each test in a similar manner to that described above except that no test compound was included in the daily injections.
On the seventh day after sensitisation, 10 µl of a solution of 1% w/v oxazolone in acetone: olive oil (either 1:1 or 3:1 by volume) was applied to one ear (the challenged ear) of each of the test mice and the control mice. After 24 hours the thickness of the challenged ear and the thickness of the non-challenged ear of the same animal were measured with an engineer's screw gauge micrometer. The difference in thickness between the challenged ear and the non-challenged ear in each animal is a measure of the response of that animal to oxazolone. A comparison between the response of mice treated with the test compound and mice treated with the control indicates the effectiveness of the test compound as an immunomodulatory agent. The compounds were considered to be active at a particular dose if a 20% or greater reduction in ear swelling, which was statistically significant (p <0.05) according to Dunnett's test, between treated and control groups was obtained in two out of three CH tests, (or, where more than three tests have been carried out, a majority of the tests) at that dose (see for example Int. Arch. Allergy, 38, p246-259 (1970)).
Each of the compounds of formula I illustrated in Table A below was active at 50 mg/kg in two out of three tests at 50 mg/kg unless indicated otherwise (see Notes following the Table). The minimum effective dose (ie the lowest dose of those used at which the compound is active as defined above) for each compound is given in Table A. The Example (Ex) number or numbers listed adjacent to each compound indicates the process or processes illustrating the preparation of that compound in the Examples.

Compound: Cc1oc2ccccc2c2nn(-c3cccc(Cl)c3)c(=O)c1-2 [Example 38, 2-(3-chlorophenyl)-4-methyl[1]benzo-pyrano[4,3-c]pyrazol-3(2H)-one]
- minimal effective dose: 3 mg/kg

Compound: COc1cccc2oc(C)c3c(=O)n(-c4ccc(Cl)cc4)nc-3c12 [Example 51, 2-(4-chlorophenyl)-9-methoxy-4-methyl-[1]benzopyrano[4,3-c]pyrazol-3(2H)-one]
- minimal effective dose: 50 mg/kg

Compound: Cc1oc2ccccc2c2nn(-c3ccc(Br)cc3)c(=O)c1-2 [Example 44, 2-(4-bromophenyl)-4-methyl[1]benzo-pyrano[4,3-c]pyrazol-3(2H)-one]
- minimal effective dose: 1 mg/kg

Compound: Cc1oc2ccccc2c2nn(-c3ccc(F)cc3)c(=O)c1-2 [Example 37, 2-(4-fluorophenyl)-4-methyl[1]benzo-pyrano[4,3-c]pyrazol-3(2H)-one]
- minimal effective dose: 1 mg/kg

Compound: COc1ccc(-n2nc3c4ccccc4oc(C)c-3c2=O)cc1 [Example 39, 2-(4-methoxyphenyl)-4-methyl[1]benzo-pyrano[4,3-c]pyrazol-3(2H)-one]
- minimal effective dose: 50 mg/kg

Compound: Cc1oc2ccc(Cl)cc2c2nn(-c3ccc(Cl)cc3)c(=O)c1-2 [Example 49, 8-chloro-2-(4-chlorophenyl)-4-methyl-[1]benzopyrano[4,3-c]pyrazol-3(2H)-one]
- minimal effective dose: 50 mg/kg

Compound: Cc1oc2cccc(C)c2c2nn(-c3ccc(Cl)cc3)c(=O)c1-2 [Example 52, 2-(4-chlorophenyl)-4,9-dimethyl[1]-benzopyrano[4,3-c]pyrazol-3(2H)-one]
- minimal effective dose: 50 mg/kg

Compound: CCc1oc2ccccc2c2nn(-c3ccc(Cl)cc3)c(=O)c1-2 [Example 40, 2-(4-chlorophenyl)-4-ethyl[1]benzo-pyrano[4,3-c]pyrazol-3(2H)-one]
- minimal effective dose: 50 mg/kg

Compound: Cc1oc2cc(Cl)ccc2c2nn(-c3ccc(Cl)cc3)c(=O)c1-2 [Example 55, 7-chloro-2-(4-chlorophenyl)-4-methyl-[1]benzopyrano[4,3-c]pyrazol-3(2H)-one]
- minimal effective dose: 50 mg/kg

Compound: Cc1oc2ccccc2c2nn(-c3ccc(C(F)(F)F)cc3)c(=O)c1-2 [Example 47, 4-methyl-2-(4-trifluoromethylphenyl)-[1]benzopyrano[4,3-c]pyrazol-3(2H)-one]
- minimal effective dose: 1 mg/kg

Compound: Cc1oc2ccc(O)cc2c2nn(-c3ccc(Cl)cc3)c(=O)c1-2 [Example 56, 2-(4-chlorophenyl)-8-hydroxy-4-methyl-[1]benzopyrano[4,3-c]pyrazol-3(2H)-one]
- minimal effective dose: 50 mg/kg

Compound: Cc1ccc(-n2nc3c4ccccc4oc(C)c-3c2=O)cc1 [Example 43, 4-methyl-2-(4-methylphenyl)[1]benzo-pyrano[4,3-c]pyrazol-3(2H)-one]
- minimal effective dose: 10 mg/kg

Compound: Cc1ccc2oc(C)c3c(=O)n(-c4ccc(Cl)cc4)nc-3c2c1 [Example 50, 2-(4-chlorophenyl)-4,8-dimethyl[1]-benzopyrano[4,3-c]pyrazol-3(2H)-one]
- minimal effective dose: 50 mg/kg

Compound: Cc1oc2ccc(F)cc2c2nn(-c3ccc(Cl)cc3)c(=O)c1-2 [Example 54, 2-(4-chlorophenyl)-8-fluoro-4-methyl-[1]benzopyrano[4,3-c]pyrazol-3(2H)-one]
- minimal effective dose: 0.1 mg/kg

Compound: Cc1oc2ccccc2c2nn(-c3ccc(F)c(Cl)c3)c(=O)c1-2 [Example 45, 2-(3-chloro-4-fluorophenyl)-4-methyl-[1]benzopyrano[4,3-c]pyrazol-3(2H)-one]
- minimal effective dose: 0.3 mg/kg

Compound: CCOC(=O)Cc1oc2ccccc2c2nn(-c3ccc(F)cc3)c(=O)c1-2 [Example 53, ethyl 2-(4-fluorophenyl)-3-oxo-2,3-dihydro[1]benzopyrano[4,3-c]pyrazole-4-acetate]
- minimal effective dose: 3 mg/kg

Compound: Cc1oc2ccccc2c2nn(-c3ccc(Cl)c(Cl)c3)c(=O)c1-2 [Example 36, 2-(3,4-dichlorophenyl)-4-methyl[1]-benzopyrano[4,3-c]pyrazol-3(2H)-one]
- minimal effective dose: 0.3 mg/kg

Compound: Cc1ccc(-n2nc3c4ccccc4oc(C)c-3c2=O)cc1Cl [Example 46, 2-(3-chloro-4-methylphenyl)-4-methyl-[1]benzopyrano[4,3-c]pyrazol-3(2H)-one]
- minimal effective dose: 3 mg/kg

Compound: Cc1oc2ccccc2c2nn(-c3ccccc3)c(=O)c1-2 [Example 42, 4-methyl-2-phenyl[1]benzopyrano-[4,3-c]pyrazol-3(2H)-one]
- minimal effective dose: 50 mg/kg

Compound: Cc1oc2cc(F)ccc2c2nn(-c3ccc(Cl)cc3)c(=O)c1-2 [Example 48, 2-(4-chlorophenyl)-7-fluoro-4-methyl-[1]benzopyrano[4,3-c]pyrazol-3(2H)-one]
- minimal effective dose: 50 mg/kg

Compound: CCOC(=O)Cc1oc2ccccc2c2nn(-c3ccc(Cl)cc3)c(=O)c1-2 [Example 41, ethyl 2-(4-chlorophenyl)-3-oxo-2,3-dihydro[1]benzopyrano[4,3-c]pyrazole-4-acetate]
- minimal effective dose: 3 mg/kg
